{"source": "patent US20140025310A1", "about": "“METHOD FOR DETERMINING THE EFFICACY OF A COMBINATION THERAPY” (priority 2009, published 2014)", "key": {"HIV-1": {"tested_on": "HIV-1", "conditions": "difference in viral load response (log scale) vs ritonavir boosted lopinavir after 8 weeks of stable treatment; double robust estimation", "excerpt": "(§1) Therefore, statistical models were applied to handle these differences. […] E.g."}, "patient's virus": {"tested_on": "patient's virus", "experiment": "Susceptibility score of the patient's virus to a drug (% activity from clinical cut-off models)", "set-up": "species or system HIV-1", "conditions": "1 = fully sensitive, 0 = fully resistant", "excerpt": "Interpretation algorithms provide a resistance call for each available HIV drug. Often this is a three way classification i.e. sensitive (a score of 1), intermediate resistant (a score of 0.5) or resistant (a score of 0). For VircoType (WO 01/79540) the interpretation is for instance based on a statistical model, leading to the definition of so called clinical cut-offs (CCO), that predicts the % activity of a drug (i.e. the susceptibility score) as a function of fold change at the start of the regimen. The % activity left was calculated by dividing the predicted viral load change for the patients' virus with a certain resistance profile by the predicted viral load for a wild-type virus. This is an ordinal value that varies between 0% (or a score of 0) and 100% (or a score of 1). Based on these values, clinical cutoffs (phenotypic threshold values) were derived to classify a virus sample into maximal response, reduced response and minimal response as described in WO 2005/086061.\nas §1"}}, "data": [{"molecule": "lopinavir [LPV/r]", "values": [{"measurement": "Weight (drug weight)", "setting": "HIV-1", "result": 0}, {"measurement": "susceptibility score", "setting": "patient's virus; Patient 1 virus", "result": 0.24}]}, {"molecule": "atazanavir [ATV/r]", "values": [{"measurement": "Weight (drug weight)", "setting": "HIV-1", "result": "−0.02"}, {"measurement": "susceptibility score", "setting": "patient's virus; Patient 2 virus", "result": 1}]}, {"molecule": "O=C1Nc2ccc(Cl)cc2[C@@](C#CC2CC2)(C(F)(F)F)O1", "note": "[EFV]", "values": [{"measurement": "susceptibility score", "setting": "patient's virus; Patient 2 virus", "result": "fully active"}]}, {"molecule": "CC(C)OC(=O)OCOP(=O)(CO[C@H](C)Cn1cnc2c(N)ncnc21)OCOC(=O)OC(C)C.O=C(O)/C=C/C(=O)O", "note": "[TDF]", "values": [{"measurement": "susceptibility score", "setting": "patient's virus; Patient 1 virus", "result": 1}, {"measurement": "susceptibility score", "setting": "patient's virus; Patient 2 virus", "result": 1}]}, {"molecule": "O=c1[nH]cnc2c1ncn2[C@H]1CC[C@@H](CO)O1", "note": "[DDI]", "values": [{"measurement": "susceptibility score", "setting": "patient's virus; Patient 1 virus", "result": 1}]}]}
